One assay concerns PTSD patients. Briefly: Clinical case reports of patients with PTSD. It is filed as in vivo, human. An excerpt:
A person was referred to a psychiatrist by […] general practitioner as they suffered from anxiety, sleep problems and nightmares. […] They were on leave from their position as a teacher. The subject was diagnosed with PTSD and a cognitive behavioural therapy was initiated.
A patient was followed by a psychiatrist due to depression symptoms, including sadness, feeling of hopelessness, apathy and anxiety. […] Fluoxetine was stopped after 6 months. About one year later, the depression symptoms recurred, alongside with auditory hallucinations. The patient was then. […] Three months later, fluoxetine was reintroduced alongside with risperidone. The patient's mood improved, but they still suffered from anxiety and auditory hallucinations. After 6 weeks with the combination of risperidone and fluoxetine, risperidone was replaced by carpipramine (150 mg/day).
A veteran presented to a psychiatrist with major depressive disorder (sadness, irritability, poor concentration, suicidal thoughts). […] New symptoms emerged, including nightmares and anxiety. […] Three months later, the patient relapsed, and was experiencing anxiety symptoms, nightmares and mildly depressed mood. The relapse was treated with carpipramine (initiated at 200 mg/day), which led to remission after 4 weeks of treatment. The patient's condition was stable for about 3 years. The symptoms (anxiety, nightmares, moderately depressed mood) reappeared after that time, together with hallucinations and flashbacks of combat. The diagnostic of PTSD was then established. Carpipramine (200 mg/day) was prescribed again, following the previous experience. The patient entered remission after 3 weeks of treatment.

In assay [1] the test system is rats subjected to psychosocial stress. Briefly: Elevated plus maze (EPM) after predator exposure and housing instability. It is filed as in vivo. Conditions: daily i.p. 21 days: carpipramine 5, sertraline 5, amitriptyline 2, quetiapine 10 mg/kg, 5 min on EPM. The method, then:
(§1) An experiment was conducted to assess the effects of carpipramine, sertraline, amitriptyline and quetiapine in rates subjected to psychosocial stress (predator exposure and housing instability) against PTSD-like behaviours, based on a protocol adapted from Zoladz et al (2012).
(§2) Adult male Sprague-Dawley rats were used in all experiments. Fifty (50) rats were pair-housed on a 12-h light/dark schedule in cages with free access to food and water.
(§3) Following a 1-week acclimation phase, they were given two 1-h cat exposures, separated by 10 days, in conjunction with daily social stress in the form of randomized housing. During each of the two cat exposures, rats were placed in a perforated wedge-shaped Plexiglas enclosure. The rats, still immobilized within the Plexiglas enclosure, were taken to the cat housing room where they were placed in a metal cage with an adult female cat for 1 hour. The Plexiglas enclosure prevented any physical contact between the cat and rats, but enabled the rats to be exposed to all non-tactile sensory stimuli associated with the cat. The two cat exposures were separated by 10 days, with the first exposure taking place during the light cycle, and the second exposure taking place during the dark cycle. Beginning on the day of the first cat exposure, rats were exposed to unstable housing conditions for the next 31 days. They were housed two rats per cage, with their cohort pair combination changed on a daily basis during the entire 31-day stress period.
(§4) The rats were randomly assigned to 5 groups of 10, treated with carpipramine, sertraline, amitriptyline, quetiapine and saline. The treatments were administered as daily intraperitoneal injections over 21 days, starting from the day following the second cat exposure. Daily doses were as following: • Carpipramine: 5 mg/kg • Sertraline: 5 mg/kg • Amitriptyline: 2 mg/kg • Quetiapine: 10 mg/kg
Twenty-four hours after fear conditioning memory testing, the rats were placed on an elevated plus maze (EPM) for 5 minutes. The EPM is a routine test of anxiety in rodents and consists of two open arms and two closed arms of same size (11 cm by 50 cm) that intersect each other to form the shape of a plus sign. At the beginning of each trial, the rats were placed in the intersection area of the EPM, facing one of the open arms. The primary dependent measures of interest were the amount of time rats spent in the open arms and their overall ambulations.

Assay [2] has the same test system. Briefly: Context memory test after predator exposure and housing instability. It counts as in vivo. The following applies: daily i.p. 21 days: carpipramine 5, sertraline 5, amitriptyline 2, quetiapine 10 mg/kg, 5 min in chamber. The method, then: as §1, §2, §3, §4
(§5) Since a major component of PTSD is the persistent memory of a traumatic experience, a method with which to measure a rat's memory for the cat exposure experiences was used. Thus, rats were given a predator-based form of fear conditioning. The rats were placed in a chamber for 3 minutes immediately prior to each of the two cat exposures. The chamber consisted of two aluminium sides, an aluminium ceiling and clear Plexiglas on the front and back walls and speaker on one wall. A 74 dB, 2500 Hz tone was presented during the last 30 seconds of each chamber exposure. Three weeks following the second cat exposure, the rats were tested for their conditioned fear memory by assessing their freezing response (degree of immobility) when they were returned to the chamber and exposed to the tone. […] For the cue memory test, the percentage of immobile time was measured during the last 3 minutes (i.e. during the tone).

Assay [3] shares this test system. Briefly: Cue memory test after predator exposure and housing instability. It counts as in vivo. The following applies: daily i.p. 21 days: carpipramine 5, sertraline 5, amitriptyline 2, quetiapine 10 mg/kg, last 3 minutes (tone). As to the method: as §1, §2, §3, §4, §5
The test system of assay [4] is socially isolated mice. Briefly: Forced swim test after social isolation (depressive-like behaviour). It counts as in vivo. The following applies: forced swim day 36 vs pre-test day 21, minutes 3 to 6; daily s.c. for 2 weeks: carpipramine 5 mg/kg, paroxetine 1 mg/kg, olanzapine 0.3 mg/kg. As to the method:
The mice were socially isolated for a period of 3 weeks in individual cages, with a 12-hour light/dark cycle. They had access to food and water at libitum. On day 21, a pre-test was performed. Cylindrical tanks were filled with water (approximately 25° C.) to a depth that prevents mice from touching the bottom. Each mouse was placed in a water-filled cylinder for 6 minutes. If the mouse was swimming or struggling after 6 minutes, it was gently submerged, so that it would struggle under the surface for up to 20 seconds. After this time elapsed, the mouse was removed from the container and placed in a transient drying cage with a heat lamp above it and a heat pad under it. The mice were closely and continuously monitored while recovering in this cage. […] The test was performed on day 36. Mice were placed again in water-filled cylinders for 6 minutes, and then moved to a drying cage. The behaviour of mice was coded over the minutes 3 to 6 of each test, in 3 categories: immobile, struggling and swimming. The time associated with each type of behaviour was recorded. A reduction in immobility time is considered predictive of antidepressant properties.

For a further assay, the system named is serotonin uptake. The following applies: studies on metabolic fate and serotonin levels in the brain; cited from earlier work.
Assay [5] relates to socially isolated mice. Briefly: Contextual fear conditioning and extinction (freezing) in socially isolated mice. It counts as in vivo. The following applies: for Change in duration of freezing, mean: carpipramine 10 mg/kg s.c., change from day 1. The source says: Socially isolated mice express a decrease in corticolimbic allopregnanolone levels that is associated with an enhancement of contextual fear responses and impaired fear extinction. Social isolation can be seen as a prolonged stress that is often associated with a precipitating traumatic event, which leads to maladaptive post-stress adaptations and emergence of PTSD in patients. Thus, social isolation is considered to offer a suitable model to study vulnerability to PTSD.
Ten (10) male Swiss-Webster mice were socially isolated for a period of 4 weeks, in individual cages, according to a protocol proposed by Pinna et al.
Day 0—Training Test. During the training, mice were placed into the training chamber and allowed to explore it for 2 min. After this time, they received a conditioned stimulus (acoustic tone, 30 seconds, 85 dB) co-terminated with an unconditioned stimulus (electric foot shock, 2 s, 0.5 mA). This was repeated three times every 2 min. After the last stimuli, mice were allowed to explore the context for an additional minute before removal from the training chamber (total of 8 min).
Day 1—Contextual Test. Twenty-four hours after training, the mice were placed in the contextual cage, and freezing behavior was measured for 5 min without tone or foot shock presentation. Freezing was defined by the absence of any movement except for those related to respiration while the animal was in a stereotypical crouching posture. Freezing time in a index of fear response.
Days 2-5—Extinction Test. For contextual extinction experiments, mice were placed in the contextual cage for periods of 5 min over 4 consecutive days starting 24 h after the contextual test, and freezing behavior was measured.
After the contextual test, 5 mice received a dose of 10 mg/kg of carpipramine subcutaneously. Injections were repeated on days 2 to 4.

In another assay the test system is DA receptors. The following applies: rat striatum in vitro; order of potency Y-516 > clocapramine > carpipramine; cited from earlier work.
A further assay relates to alpha-1 adrenoreceptors. The following applies: cited from earlier work.
[6] abbreviates: Example 5: patient, fluoxetine as initial treatment, risperidone with psychological therapy.
[7] abbreviates: Example 6: veteran, sertraline first, switched to venlafaxine, olanzapine subsequently added.

Take `CNCCC(Oc1ccc(C(F)(F)F)cc1)c1ccccc1` (stereo not drawn) [fluoxetine]: in the assay on PTSD patients (setting [6]), the “clinical outcome of earlier treatments” value is recorded as “improvement in most symptoms, but anxiety persisted”.

As to `OCCOCCN1CCN(C2=Nc3ccccc3Sc3ccccc32)CC1` [Quetiapine], in assay [1], the “EPM-Open arm exploration % time in open arm, mean” value (“EPM-Open arm exploration % time” below) amounted to 28.7%. Further, the “Context memory % immobility time, mean” value in [2] was found to be 53.4%. Moreover, the “Cue memory (during tone) % immobility time, mean” value in assay [3] was 39.3%.

`COc1ccc(C(CN(C)C)C2(O)CCCCC2)cc1` (stereo not drawn) [venlafaxine]: in the assay with PTSD patients (setting [7]), the “clinical outcome of earlier treatments” value is on record as “some improvement, but severe symptoms persisted”.

On to `NC(=O)C1(N2CCCCC2)CCN(CCCN2c3ccccc3CCc3ccccc32)CC1` [Carpipramine], for which the “Mean change in immobility time compared to pre-test” value (“Mean change in immobility time” below) with socially isolated mice [4] is -104.3 s. For the same compound, in the assay with PTSD patients (Example 4: person, oral carpipramine 100 mg/daily with cognitive behavioural therapy), the “clinical outcome of PTSD symptoms” value is listed as “All PTSD symptoms improved markedly”. Besides, the clinical outcome in the assay on PTSD patients (Example 5: patient, carpipramine 150 mg/day replacing risperidone, alongside fluoxetine) is listed as “entered in remission two weeks later”. Besides, the time to remission is given as 4 weeks in the assay with PTSD patients (Example 6: first relapse, carpipramine initiated at 200 mg/day) and 3 weeks in the assay with PTSD patients (Example 6: recurrence about 3 years later, PTSD diagnosed, carpipramine 200 mg/day). For the same compound, in assay [1], the “EPM-Open arm exploration % time” value came to 42.1%. The “Context memory % immobility time, mean” value in [2] amounted to 22.3%. Further, the “effect on serotonin uptake” value in the assay with serotonin uptake is given as “did not modify serotonin uptake”. Further, in assay [3], the “Cue memory (during tone) % immobility time, mean” value was found to be 14.6%. Further, the “mean duration of freezing” value in the assay on socially isolated mice [5] (day 1 contextual test, treated group before first injection (carpipramine 10 mg/kg s.c. given after the test)) is 117 s. The “Change in duration of freezing, mean” value is -76 s with socially isolated mice [5] (day 2), -93 s in the assay with socially isolated mice [5] (day 3), -98 s with socially isolated mice [5] (day 4) and -99 s with socially isolated mice [5] (day 5). Moreover, in the assay with socially isolated mice [5] (treated group after extinction tests, carpipramine 10 mg/kg s.c. day 1 and days 2 to 4, p<0.01 vs control), the “duration of freezing decreased to” value came to 18 s. The “affinity for DA receptors” value in the assay on DA receptors is listed as “high affinity”.

As to `NC(=O)C1(N2CCCCC2)CCN(CCCN2c3ccccc3CCc3ccc(Cl)cc32)CC1` [clocapramine], the “affinity for DA receptors” value in the assay on DA receptors is reported as “high affinity”.

For the compound `Cc1cc2c(s1)Nc1ccccc1N=C2N1CCN(C)CC1` [Olanzapine], in the assay on socially isolated mice [4], the “Mean change in immobility time” value is “+19.5 seconds”.

On to `CN[C@H]1CC[C@@H](c2ccc(Cl)c(Cl)c2)c2ccccc21` [Sertraline], for which, in the assay with PTSD patients (setting [7]), the “clinical outcome of earlier treatments” value is recorded as “no improvement”. Further, the “EPM-Open arm exploration % time” value in assay [1] came to 32.5%. The “Context memory % immobility time, mean” value in [2] turned out to be 37.1%. Also, the “Cue memory (during tone) % immobility time, mean” value in assay [3] was 25.7%.

Regarding `CN(C)CCC=C1c2ccccc2CCc2ccccc21` [Amitriptyline], the “EPM-Open arm exploration % time” value in [1] is reported as 20.6%. Also, the “Context memory % immobility time, mean” value in assay [2] came out at 64.5%. In addition, the “Cue memory (during tone) % immobility time, mean” value in [3] was found to be 42.7%.

As for `CN(C)C(=O)N[C@H]1CC[C@H](CCN2CCN(c3cccc(Cl)c3Cl)CC2)CC1` [Cariprazine], in the assay on alpha-1 adrenoreceptors, the “affinity for alpha-1 adrenoreceptors” value is given as “low affinity”.

For `Cc1nc2n(c(=O)c1CCN1CCC(c3noc4cc(F)ccc34)CC1)CCCC2` [risperidone], the “clinical outcome of earlier treatments” value with PTSD patients (setting [6]) is “modest improvement”.

Take `Fc1ccc([C@@H]2CCNC[C@H]2COc2ccc3c(c2)OCO3)cc1` [Paroxetine]: the “Mean change in immobility time” value with socially isolated mice [4] was -82.2 s.
